We go through four compounds from patent publication US12410124B2 (priority 2019, dated 2025).

Format in all cases: in vivo
One experiment has as its system substantia nigra pp38. Kind of experiment: Substantia nigra pp38 protein expression in MPTP Parkinson's disease model mouse (immunofluorescence). The following applies: percentage of mean intensity of blank control group, gavage 21 days after MPTP modeling. The protocol:
(§1) Neurotoxins can be used to establish PD animal models. Currently, 1-methyl-4-phenyl-1,2,3,6-tetrahydropyridine (MPTP) is the sole synthetic toxin which is recognized to induce PD symptoms in human and non-human primates and in mice. Using MPTP subacute modeling method, C57BL/6J male mice were intraperitoneally injected with MPTP 30 mg/kg, once a day for 5 consecutive days. The experiment animals were divided into blank control group, MPTP model group, and compound treatment group. For the […] compound treatment group, the compound was administrated by gavage for 21 consecutive days after the completion of modeling; for the MPTP model group, the normal saline was administrated by gavage for 21 consecutive days after the completion of modeling; and for the blank control group, the normal saline was first intraperitoneally injected for 5 days, and then administrated by gavage for 21 days.
The p38 mitogen-activated protein kinase (p38 MAPK) is expressed in both neurons and glial cells, and is the intersection point of neuron-glial cell network information regulations. The activation of p38 signaling pathway is an important initiator of neuronal degeneration, which continuously induces the apoptosis of dopaminergic neurons in multiple ways. It has become a research hotspot for the treatment of PD. Studies have shown that the protective mechanism of CAPE against the death of primary cultured cerebellar granule neurons induced by glutamate lies in inhibiting the activation of p38 phosphorylation and in turn inhibiting the activation of the caspase 3 apoptotic pathway to prevent neuronal apoptosis. Therefore, the MPTP-induced PD mouse model can be used to investigate the inhibitory effect of the target compounds on the activation of p38 phosphorylation on the overall animal level.
Half of experiment mice in each group were taken to separate the midbrain after perfusion and fixation. The tissue was trimmed, and the substantia nigra-striatum area was taken to prepare paraffin sections. The double immunofluorescence staining for TH and phosphorylated p38 was performed to observe the coexpression of TH and phosphorylated p38, for the statistics of the change in the phosphorylated p38 protein expression. The experiment included blank control group, MPTP model group, positive control group (caffeic acid phenethyl ester, CAPE), prototype control group (styryl sulfone compounds 3B, 3C, 3D, and 3G, whose structures are shown as above), and target compound group.

The subject of another experiment is GCLC. Briefly: Midbrain GCLC expression in MPTP Parkinson's disease model mouse (western blot). As to conditions: midbrain, MPTP Parkinson's disease model mouse, western blot. The protocol:
as §1
Oxidative stress is an important pathogenic mechanism of PD. Dopaminergic neurons are more sensitive to oxidative stress and are more susceptible to oxidative stress damage. Glutathione (GSH) is an important antioxidant substance in the cell, and glutamate cysteine ligase (GCL) is the rate-limiting enzyme for GSH synthesis, which is composed of catalytic subunit (GCLC) and regulatory subunit (GCLM). The increase of GCLC expression can promote the synthesis of GSH and enhance the ability of tissue cells against oxidative stress. GCL, a phase II enzyme, plays an important protective role by catalyzing the conversion of free radicals into non-toxic products and increasing their water solubility to facilitate the elimination of free radicals, and maintain the redox balance in the body. It plays an important role in the process of protecting cells against oxidative stress damage. The activation of p38 protein phosphorylation has a negative regulatory effect on phase II enzymes. […] Using GCLC as an indicator, the inhibitory effect of the target compounds on MPTP-induced oxidative stress damage in PD mice can be investigated.
GCLC is expressed in astrocytes, microglial cells, and neurons. The total proteins of the midbrain tissue of mice in each experiment group were extracted, to determine the expression of phase II enzyme GCLC in the midbrain of mice by western blot using GAPDH as the internal reference. The experiment included blank control group, MPTP model group, positive control group (caffeic acid phenethyl ester, CAPE), prototype control group (styryl sulfone compounds 3B, 3C, 3D), and 3G, whose structures are shown as above), and target compound group.
(In general: In western blotting, separated proteins are transferred to a membrane and probed.)

The test system of the next experiment is midbrain p-α-s. Briefly: Midbrain p-α-s protein expression in MPTP Parkinson's disease model mouse (western-blotting). As to conditions: midbrain total protein, GAPDH internal reference, gavage 21 consecutive days after MPTP modeling. As to the method: as §1
Alpha-synuclein is an “unfolded protein” in its natural state. It exists in a monomeric form, and participates in the physiological functions such as the release of neurotransmitters, the establishment of synaptic junctions, and the regulation of synaptic plasticity. Under pathological conditions, more than 90% of alpha-synuclein is phosphorylated at serine of position 129 and converted into phosphorylated alpha-synuclein (p-α-s), thereby forming Lewy bodies. The formation of Lewy bodies is one of the main pathological manifestations and pathological mechanisms for Parkinson's disease, and plays an important role in the formation and development of PD. The detection of the p-α-s expression in the midbrain and substantia nigra of PD model mice can evaluate the neuroprotective activity of the compound.
Half of experiment mice in each group were taken to extract the total midbrain protein, and the change in the midbrain P-α-s protein expression was determined by western-blotting using GAPDH as the internal reference. The experiment included blank control group, MPTP model group, positive control group (caffeic acid phenethyl ester, CAPE), prototype control group (styryl sulfone compounds 3B, 3C, 3D, and 3G, whose structures are shown as above), and target compound group.

The test system of the next experiment is substantia nigra TH. Briefly: Substantia nigra TH expression in MPTP Parkinson's disease model mouse (immunofluorescence). The following applies: percentage of mean intensity of blank control group, gavage 21 days after MPTP modeling. The protocol: as §1
The main cause of PD lies in the pathological changes in the substantia nigra-striatum projection system of the brain and the progressive degeneration and loss of dopaminergic neurons. Tyrosine hydroxylase (TH) is the first enzyme in the biosynthesis of catecholamine neurotransmitters, as well as the first rate-limiting enzyme in the dopamine synthesis. It plays an important role in the synthesis and metabolism of the neurotransmitter DA. The TH in PD animal models and patients has a wide range of abnormal changes, from the gene expression to the enzyme protein content and enzyme activity. The detection of the TH expression in the midbrain and substantia nigra of PD model mice can be used to evaluate the neuroprotective activity of the compound.
Half of experiment mice in each group were taken to separate the midbrain after perfusion and fixation. The tissue was trimmed, and the substantia nigra-striatum area was taken to prepare paraffin sections. The TH immunofluorescence staining was performed in the brain sections of mice in each group. […] The experiment included blank control group, MPTP model group, positive control group (caffeic acid phenethyl ester, CAPE), prototype control group (styryl sulfone compounds 3B, 3C, 3D, and 3G, whose structures are shown as above), and target compound group.

With `CC[Si](CC)(Oc1ccc(C(Cl)S(=O)(=O)/C=C/c2ccc(OC(=O)N3CC(C)OC(C)C3)c(OC(=O)c3cccc(Cl)c3OC)c2)cc1)c1ccccc1` (stereo not shown) [Compound R1-5, (E)-4-{2-[4-(diethylphenylsiloxy)phenylchloromesyl]ethenyl}-2-(3-chloro-2-methoxybenzoyloxy)phenyl-2,6-dimethylmorpholine-4-carboxylate], the “Expression (Immunofluorescence intensity %)” value in the experiment with substantia nigra pp38 was 101.93 ± 7.44%; in the experiment on substantia nigra TH, 92.45 ± 3.93%. Further, the “Expression (GCLC/GAPDH)” value in the experiment on GCLC turned out to be 1.02 ± 0.09. In the experiment on midbrain p-α-s, the “Expression (p-α-s/GAPDH)” value turned out to be 0.46 ± 0.11.

On to `Cc1ccc(S(=O)(=O)Oc2ccc(CS(=O)(=O)/C=C/c3ccc(OS(=O)(=O)c4ccc(C)cc4)c(OC(=O)N(C)S(=O)(=O)c4ccc(C)cc4)c3)cc2)cc1` [Compound S6-6, (E)-2-(N-methyl-N-p-tosylcarbamoyloxy)-4-{2-[(4-p-tosyloxyphenyl)mesyl]ethenyl}phenyl p-toluenesulfonate], for which the “Expression (Immunofluorescence intensity %)” value with substantia nigra pp38 is on record as 105.30 ± 10.08%; with substantia nigra TH, 96.01 ± 7.32%. Moreover, in the experiment with GCLC, the “Expression (GCLC/GAPDH)” value was 1.29 ± 0.08. Moreover, in the experiment on midbrain p-α-s, the “Expression (p-α-s/GAPDH)” value came out at 0.28 ± 0.06.

`O=C(/C=C/c1ccc(O)c(O)c1)OCCc1ccccc1` [Positive control group, caffeic acid phenethyl ester, reference compound]: the “Expression (Immunofluorescence intensity %)” value is 139.72 ± 25.32% with substantia nigra pp38 and 79.21 ± 6.59% in the experiment on substantia nigra TH. The “Expression (GCLC/GAPDH)” value with GCLC came out at 0.77 ± 0.06. Moreover, the “Expression (p-α-s/GAPDH)” value in the experiment on midbrain p-α-s is on record as 0.54 ± 0.12.

On to “(E)-2-[(methylamino)methoxy]-4-{2-[1-(4′-nitro-[1,1′-biphenyl]-4-yl)ethylsulfonyl]ethenyl}phenylcarbamate [Compound M1-3]”, for which the results for the “Expression (Immunofluorescence intensity %)” value with substantia nigra pp38 and in the experiment on substantia nigra TH were 100.22 ± 14.12% and 84.07 ± 3.19%, respectively. Moreover, in the experiment on GCLC, the “Expression (GCLC/GAPDH)” value is 0.82 ± 0.07. Also, in the experiment with midbrain p-α-s, the “Expression (p-α-s/GAPDH)” value amounted to 0.42 ± 0.05.
